Assay: method code SF-AS, from DOI: 10.1016/j.jct.2013.01.022
Conditions: pH 7.4

SMILES	logD
Brc1ccc(NC2=NCCC3(CCCCC3)S2)cc1	2.43
FC(F)(F)c1ccc(NC2=NCCC3(CCCCC3)S2)cc1	2.45
CC(C)c1ccc(NC2=NCCC3(CCCCC3)S2)cc1	1.75
c1ccc(NC2=NCCC3(CCCCC3)S2)cc1	1.27
CCc1ccc(NC2=NCCC3(CCCCC3)S2)cc1	2.22
Cc1ccc(NC2=NCCC3(CCCCC3)S2)cc1Cl	2.54
Clc1ccc(NC2=NCCC3(CCCCC3)S2)cc1	2.4
O=C(NC1=NCCC2(CCCCC2)S1)c1ccccc1	1.55
Cc1ccc(NC2=NCCC3(CCCCC3)S2)cc1	1.88
CC(=O)c1ccc(NC2=NCCC3(CCCCC3)S2)cc1	1.89

Source: the SangsterLogP compilation
